pIC50: −log10 of the molar value. Where only a bound is given, the exact number is not on record here.

The test system of this assay is MCF7 cells. The experiment in a line: Anti-proliferation (viability) of MCF7 cells (Table 7, FIG. 2B). Type of assay: cell-based. To be noted: Homo sapiens, MCF7, MCF7 cells, 3-6 days, 10-point serial dilution; read-out: GI IC50 in MCF-7.
One may read the pIC50 as −log10 of the IC50, conventionally taken in molar units. In the case of `[2H]C([2H])([2H])Nc1ccc(C(=O)Nc2cc(C)on2)c(NC2CCC(NC(=O)CN3CCN(c4ccc(Nc5ncc6c(C)c(C(C)=O)c(=O)n(C7CCCC7)c6n5)nc4)CC3)C2)n1` (stereo not shown) [CPD-294, 2-((3-(2-(4-(6-((6-acetyl-8-cyclopentyl-5-methyl-7-oxo-7,8-dihydropyrido[2,3-d]pyrimidin-2-yl)amino)pyridin-3-yl)piperazin-1-yl)acetamido)cyclopentyl)amino)-6-((methyl-d3)amino)-N-(5-methylisoxazol-3-yl)nicotinamide], the negative logarithm of the IC50 (pIC50) was below 7.00.
For the molecule `[2H]C([2H])([2H])Nc1ccc(C(=O)Nc2ccc(N(C)C)nn2)c(NC2CC(NC(=O)CN3CCC4(CCN(c5ccc(Nc6ncc7c(C)c(C(C)=O)c(=O)n(C8CCCC8)c7n6)nc5)C4)C3)C2)n1` (stereo not shown) [CPD-450, 2-((3-(2-(7-(6-((6-acetyl-8-cyclopentyl-5-methyl-7-oxo-7,8-dihydropyrido[2,3-d]pyrimidin-2-yl)amino)pyridin-3-yl)-2,7-diazaspiro[4.4]nonan-2-yl)acetamido)cyclobutyl)amino)-N-(6-(dimethylamino)pyridazin-3-yl)-6-((methyl-d3)amino)nicotinamide], the negative logarithm of the IC50 (pIC50) is above 7.30.
Then `[2H]C([2H])([2H])Nc1ccc(C(=O)Nc2cn(C)c(C3CC3)n2)c(NC2CC(NC(=O)CN3CCN(c4ccc(Nc5ncc6c(C)c(C(C)=O)c(=O)n(C7CCCC7)c6n5)nc4)CC3)C2)n1` (stereo not shown) [CPD-307, 2-((3-(2-(4-(6-((6-acetyl-8-cyclopentyl-5-methyl-7-oxo-7,8-dihydropyrido[2,3-d]pyrimidin-2-yl)amino)pyridin-3-yl)piperazin-1-yl)acetamido)cyclobutyl)amino)-N-(2-cyclopropyl-1-methyl-1H-imidazol-4-yl)-6-((methyl-d3)amino)nicotinamide], with below 7.00; and `CNc1ccc(C(=O)Nc2ccc(N(C)C)nn2)c(NC2CC3(C2)CN(C(=O)CN2CCN(Cc4ccc(Nc5ncc6c(C)c(C(C)=O)c(=O)n(C7CCCC7)c6n5)nc4)CC2)C3)n1` [CPD-268, 2-((2-(2-(4-((6-((6-acetyl-8-cyclopentyl-5-methyl-7-oxo-7,8-dihydropyrido[2,3-d]pyrimidin-2-yl)amino)pyridin-3-yl)methyl)piperazin-1-yl)acetyl)-2-azaspiro[3.3]heptan-6-yl)amino)-N-(6-(dimethylamino)pyridazin-3-yl)-6-(methylamino)nicotinamide], with above 7.30; and `CC(=O)c1c(C)c2cnc(Nc3ccc(N4CCC5(CC4)CC5C(=O)N4CCC(Nc5nc(NC(C)C)ccc5C(=O)Nc5cc(C)on5)CC4)cn3)nc2n(C2CCCC2)c1=O` (stereo not shown) [CPD-419, 2-((1-(6-(6-((6-acetyl-8-cyclopentyl-5-methyl-7-oxo-7,8-dihydropyrido[2,3-d]pyrimidin-2-yl)amino)pyridin-3-yl)-6-azaspiro[2.5]octane-1-carbonyl)piperidin-4-yl)amino)-6-(isopropylamino)-N-(5-methylisoxazol-3-yl)nicotinamide], with above 7.30.
In the case of `CNc1ccc(C(=O)Nc2ccc(N(C)C)nn2)c(N[C@H]2C[C@@H](CN3CCC(CN4CCN(c5ccc(Nc6ncc7c(C)c(C(C)=O)c(=O)n(C8CCCC8)c7n6)nc5)CC4)C3)C2)n1` (stereo partly shown) [CPD-336] it was below 7.00; in that of `CCNc1ccc(C(=O)Nc2cn(C)c(C3CC3)n2)c(NC2CC3(CC(NC(=O)CN4CCN(c5ccc(Nc6ncc7c(C)c(C(C)=O)c(=O)n(C8CCCC8)c7n6)nc5)CC4)C3)C2)n1` (stereo not shown) [CPD-293, 2-((6-(2-(4-(6-((6-acetyl-8-cyclopentyl-5-methyl-7-oxo-7,8-dihydropyrido[2,3-d]pyrimidin-2-yl)amino)pyridin-3-yl)piperazin-1-yl)acetamido)spiro[3.3]heptan-2-yl)amino)-N-(2-cyclopropyl-1-methyl-1H-imidazol-4-yl)-6-(ethylamino)nicotinamide], below 7.00.
Then `CC(=O)c1c(C)c2cnc(Nc3ccc(N4CCC5(CC4)CC5C(=O)NC4CC5(C4)CC(Nc4nc(NC(C)C)ccc4C(=O)Nc4cc(C)n(C)n4)C5)cn3)nc2n(C2CCCC2)c1=O` (stereo not shown) [CPD-451, 6-(6-((6-acetyl-8-cyclopentyl-5-methyl-7-oxo-7,8-dihydropyrido[2,3-d]pyrimidin-2-yl)amino)pyridin-3-yl)-N-(6-((3-((1,5-dimethyl-1H-pyrazol-3-yl)carbamoyl)-6-(isopropylamino)pyridin-2-yl)amino)spiro[3.3]heptan-2-yl)-6-azaspiro[2.5]octane-1-carboxamide], with above 7.30.
For the molecule `CNc1ccc(C(=O)Nc2cn(C)c(C3CC3)n2)c(NC2CC3(C2)CN(C(=O)C2CC24CCN(c2ccc(Nc5ncc6c(C)c(C(C)=O)c(=O)n(C7CCCC7)c6n5)nc2)CC4)C3)n1` (stereo not shown) [CPD-320, 2-((2-(6-(6-((6-acetyl-8-cyclopentyl-5-methyl-7-oxo-7,8-dihydropyrido[2,3-d]pyrimidin-2-yl)amino)pyridin-3-yl)-6-azaspiro[2.5]octane-1-carbonyl)-2-azaspiro[3.3]heptan-6-yl)amino)-N-(2-cyclopropyl-1-methyl-1H-imidazol-4-yl)-6-(methylamino)nicotinamide], the negative-log IC50 (pIC50) is below 7.00.
In the case of `CC(=O)c1c(C)c2cnc(Nc3ccc(N4CCN(CC(=O)NC5CC6(C5)CC(Nc5nc(C(C)(C)O)ccc5C(=O)Nc5cn(C)c(C7CC7)n5)C6)CC4)cn3)nc2n(C2CCCC2)c1=O` (stereo not shown) [CPD-352, 2-((6-(2-(4-(6-((6-acetyl-8-cyclopentyl-5-methyl-7-oxo-7,8-dihydropyrido[2,3-d]pyrimidin-2-yl)amino)pyridin-3-yl)piperazin-1-yl)acetamido)spiro[3.3]heptan-2-yl)amino)-N-(2-cyclopropyl-1-methyl-1H-imidazol-4-yl)-6-(2-hydroxypropan-2-yl)nicotinamide], the negative logarithm of the IC50 (pIC50) is below 7.00.
Then `CC(=O)c1c(C)c2cnc(Nc3ccc(N4CCN(C(CC(=O)N5CC6(CC(Nc7nc(NC(C)C)ccc7C(=O)Nc7cc(C)n(C)n7)C6)C5)C(F)(F)F)CC4)cn3)nc2n(C2CCCC2)c1=O` (stereo not shown) [CPD-433, 2-((2-(3-(4-(6-((6-acetyl-8-cyclopentyl-5-methyl-7-oxo-7,8-dihydropyrido[2,3-d]pyrimidin-2-yl)amino)pyridin-3-yl)piperazin-1-yl)-4,4,4-trifluorobutanoyl)-2-azaspiro[3.3]heptan-6-yl)amino)-N-(1,5-dimethyl-1H-pyrazol-3-yl)-6-(isopropylamino)nicotinamide], with above 7.30; and `CNc1ccc(C(=O)Nc2ccc(N(C)C)nn2)c(NC2CN(C(=O)CN3CCN(Cc4ccc(Nc5ncc6c(C)c(C(C)=O)c(=O)n(C7CCCC7)c6n5)nc4)CC3)C2)n1` [CPD-269, 2-((1-(2-(4-((6-((6-acetyl-8-cyclopentyl-5-methyl-7-oxo-7,8-dihydropyrido[2,3-d]pyrimidin-2-yl)amino)pyridin-3-yl)methyl)piperazin-1-yl)acetyl)azetidin-3-yl)amino)-N-(6-(dimethylamino)pyridazin-3-yl)-6-(methylamino)nicotinamide], with below 7.00.
As for `CNc1ccc(C(=O)Nc2ccc(N(C)C)nn2)c(NC2CC(C(=O)N3CC(N4CCN(c5ccc(Nc6ncc7c(C)c(C(C)=O)c(=O)n(C8CCCC8)c7n6)nc5)CC4)C3)C2)n1` (stereo not shown) [CPD-332, 2-((3-(3-(4-(6-((6-acetyl-8-cyclopentyl-5-methyl-7-oxo-7,8-dihydropyrido[2,3-d]pyrimidin-2-yl)amino)pyridin-3-yl)piperazin-1-yl)azetidine-1-carbonyl)cyclobutyl)amino)-N-(6-(dimethylamino)pyridazin-3-yl)-6-(methylamino)nicotinamide], the pIC50 was below 7.00.

Source of the values: patent publication US20260297081A1, “COMPOUNDS AND METHODS OF TREATING CANCERS” (Cullgen Inc., priority 2023, published 2026).
